From patent publication US20230398125A1, “TREATING HEPATITIS” (Albireo AB, priority 2022, published 2023)
Where two headings read alike, the source gives them in different places.

Assays:
Mouse NTCP = molecular target: T1, Mouse NTCP (Mus musculus, UniProt O08705); assay: 3H-taurocholic acid uptake in mouse NTCP-overexpressing cells; format: cell-based; settings: 3H-taurocholic acid transport
T1 construct: expressed in transfected cells; kept under geneticin selection
T1 sequence (O08705 1-362): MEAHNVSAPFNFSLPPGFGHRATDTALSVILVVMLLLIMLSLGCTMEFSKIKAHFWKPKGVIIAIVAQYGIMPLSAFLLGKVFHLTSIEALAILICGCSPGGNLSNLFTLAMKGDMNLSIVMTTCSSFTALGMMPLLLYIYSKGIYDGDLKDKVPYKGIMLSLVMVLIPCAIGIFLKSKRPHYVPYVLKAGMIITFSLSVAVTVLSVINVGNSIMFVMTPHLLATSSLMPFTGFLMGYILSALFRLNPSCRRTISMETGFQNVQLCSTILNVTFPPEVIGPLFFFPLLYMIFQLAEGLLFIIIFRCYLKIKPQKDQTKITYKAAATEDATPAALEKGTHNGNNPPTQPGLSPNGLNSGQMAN
Protocol: 20,000 cells (Human & Mouse NTCP-overexpressing cells) were seeded in 96-well plate in 100 μL MEM-alpha medium supplemented with 10% FBS containing geneticin (1 mg/mL) and incubated at 37° C. in 5% CO2 for 24 hrs. After incubation, media was decanted from the wells and cells were washed two times with 250 μL of basal MEM-alpha medium (FBS-free). After each wash, plates were tapped against a paper towel to ensure maximum removal of residual media. For Human NTCP (hNTCP), incubation mix was prepared by adding test inhibitor dilutions (3-fold serial dilution in DMSO, 10 concentrations) in MEM-alpha (without FBS) containing 0.3 μM ^3H-taurocholic acid and 7.5 μM cold taurocholic acid (maintaining 0.2% final DMSO concentration). […]
The plates were tapped against a paper towel after every wash to ensure maximum removal of blocking buffer. 100 μL of MicroScint-20 was added to the wells and kept overnight at room temperature before reading the plates in MicroBeta2 liquid Scintillation Counter from PerkinElmer under 3H Test for I/L-BAT protocol (set at 120 seconds reading time per well, with normal plate orientation).
Percentage inhibitions were calculated with respect to the assay controls. […]

[1] = Pharmacokinetic phase: plasma exposure after oral dosing in non-infected PXB mice; format: in vivo; settings: for concentration at 0.5 h / concentration at 1 h / concentration at 2 h / concentration at 4 h / concentration at 6 h / concentration at 24 h: PXB, mouse, plasma, po
Protocol: Thirty microliters (30 μL) of blood were collected from all animals under isoflurane anesthesia via the retro-orbital plexus/sinus using sodium heparin-coated calibrated pipettes according to the collection schedule shown in Table 7. The individual blood samples of the animals were transferred to labeled microtubes and stored under chilled conditions until centrifugation at 3500×g, 5° C. for 10 minutes to obtain plasma. Individual plasma samples were transferred into separately labeled microtubes and snap frozen in liquid nitrogen. The plasma exposure of Compound 1 from the pharmacokinetic phase was measured via LC/MS- MS. The lower limit of quantitation was 1 ng/mL.

HBV genotype C = assay: Serum HBsAg in HBV-infected PXB mice; format: in vivo, hepatitis B virus; settings: 10 mg/kg and 30 mg/kg, Day 7
Protocol: Target volume of blood was collected from all surviving animals under isoflurane anesthesia via the retro-orbital plexus/sinus using Intramedic™ Polyethylene Tubing at each time point. Two microliters (2 μL) from the collected blood were used for human albumin measurements. The remaining blood was centrifuged to separate serum to be used for analyzing the indicated biomarkers. Blood samples were collected according to Table 8.
The individual blood samples of the animals were left at room temperature for at least 5 minutes to coagulate and then centrifuged at 13200×g, 4° C. for 3 minutes to obtain serum. The serum was divided into separate labeled microtubes and stored at −80° C. until analysis.
Serum HBsAg concentration was determined by SRL, Inc. (Tokyo, Japan) based on a Chemiluminescent Enzyme Immuno Assay (CLEIA) developed by Fujirebio ([…] HBsAg-HQ, […]® Prestoll). The dilution factor was 30 and 10, and the measurement range of this assay was between 0.005 and 150 IU/mL. For the 30-fold diluted samples, the measurement range was adjusted to be between 0.15 and 4500 IU/mL. And for the 10-fold diluted samples, the measurement range was adjusted to be between 0.05 and 1500 IU/mL. The lowest quantification limit of this assay was 0.15 IU/mL serum.

[2] = 10 mg/kg, non-infected PXB mice, 10 mg/kg p.o., animal 101, read-out: Plasma conc.
[3] = 10 mg/kg, non-infected PXB mice, 10 mg/kg p.o., animal 102, read-out: Plasma conc.
[4] = 10 mg/kg, non-infected PXB mice, 10 mg/kg p.o., animal 103, read-out: Plasma conc.
[5] = 10 mg/kg, non-infected PXB mice, 10 mg/kg p.o., mean of 3 animals, read-out: Plasma conc. Mean ± SD
[6] = 10 mg/kg, non-infected PXB mice, 10 mg/kg p.o., animal 201, read-out: Plasma conc.
[7] = 10 mg/kg, non-infected PXB mice, 10 mg/kg p.o., animal 202, read-out: Plasma conc.
[8] = 10 mg/kg, non-infected PXB mice, 10 mg/kg p.o., animal 203, read-out: Plasma conc.
[9] = 30 mg/kg, non-infected PXB mice, 30 mg/kg p.o., animal 301, read-out: Plasma conc.
[10] = 30 mg/kg, non-infected PXB mice, 30 mg/kg p.o., animal 302, read-out: Plasma conc.
[11] = 30 mg/kg, non-infected PXB mice, 30 mg/kg p.o., animal 303, read-out: Plasma conc.
[12] = 30 mg/kg, non-infected PXB mice, 30 mg/kg p.o., mean of 3 animals, read-out: Plasma conc. Mean ± SD
[13] = 30 mg/kg, non-infected PXB mice, 30 mg/kg p.o., animal 401, read-out: Plasma conc.
[14] = 30 mg/kg, non-infected PXB mice, 30 mg/kg p.o., animal 402, read-out: Plasma conc.
[15] = 30 mg/kg, non-infected PXB mice, 30 mg/kg p.o., animal 403, read-out: Plasma conc.

CCCCC1CN(c2ccccc2)c2cc(SC)c(O/C=C(\F)C(=O)O)cc2S(=O)(=O)N1C (stereo not shown) [Compound 1, (Z)-3-((3-butyl-2-methyl-7-(methylthio)-1,1-dioxido-5-phenyl-2,3,4,5-tetrahydro-1,2,5-benzothiadiazepin-8-yl)oxy)-2-fluoroacrylic acid]
IC50 (Mouse NTCP): 1.82 ± 0.25 nM | plasma exposure versus dose ([1]; 10 and 30 mg/kg p.o.): increased with increased dose | detection in plasma ([1]; 10 and 30 mg/kg p.o., non-infected PXB mice): detected in plasma throughout the 24-hour time period | concentration at 0.5 h [1, 2]: 1.29 µg/mL | concentration at 0.5 h [1, 3]: 2.65 µg/mL | concentration at 0.5 h [1, 4]: 0.727 µg/mL | concentration at 0.5 h [1, 5]: 1.56 ± 0.99 µg/mL | concentration at 1 h [1, 6]: 0.492 µg/mL | concentration at 1 h [1, 7]: 0.763 µg/mL | concentration at 1 h [1, 8]: 1.81 µg/mL | concentration at 1 h [1, 5]: 1.02 ± 0.69 µg/mL | concentration at 2 h [1, 2]: 0.194 µg/mL | concentration at 2 h [1, 3]: 0.322 µg/mL | concentration at 2 h [1, 4]: 0.177 µg/mL | concentration at 2 h [1, 5]: 0.231 ± 0.079 µg/mL | concentration at 4 h [1, 6]: 0.111 µg/mL | concentration at 4 h [1, 7]: 0.0614 µg/mL | concentration at 4 h [1, 8]: 0.587 µg/mL | concentration at 4 h [1, 5]: 0.253 ± 0.29 µg/mL | concentration at 6 h [1, 2]: 0.0462 µg/mL | concentration at 6 h [1, 3]: 0.0635 µg/mL | concentration at 6 h [1, 4]: 0.13 µg/mL | concentration at 6 h [1, 5]: 0.08 ± 0.044 µg/mL | concentration at 24 h [1, 6]: 0.0253 µg/mL | concentration at 24 h [1, 7]: 0.0272 µg/mL | concentration at 24 h [1, 8]: 0.0014 µg/mL | concentration at 24 h [1, 5]: 0.018 ± 0.014 µg/mL | concentration at 0.5 h [1, 9]: 1.88 µg/mL | concentration at 0.5 h [1, 10]: 2.91 µg/mL | concentration at 0.5 h [1, 11]: 6.81 µg/mL | concentration at 0.5 h [1, 12]: 3.87 ± 2.6 µg/mL | concentration at 1 h [1, 13]: 4.56 µg/mL | concentration at 1 h [1, 14]: 5.32 µg/mL | concentration at 1 h [1, 15]: 1.47 µg/mL | concentration at 1 h [1, 12]: 3.78 ± 2 µg/mL | concentration at 2 h [1, 9]: 2.42 µg/mL | concentration at 2 h [1, 10]: 0.59 µg/mL | concentration at 2 h [1, 11]: 3.04 µg/mL | concentration at 2 h [1, 12]: 2.02 ± 1.3 µg/mL | concentration at 4 h [1, 13]: 1.12 µg/mL | concentration at 4 h [1, 14]: 1.09 µg/mL | concentration at 4 h [1, 15]: 0.217 µg/mL | concentration at 4 h [1, 12]: 0.811 ± 0.51 µg/mL | concentration at 6 h [1, 9]: 0.554 µg/mL | concentration at 6 h [1, 10]: 0.0998 µg/mL | concentration at 6 h [1, 11]: 1.49 µg/mL | concentration at 6 h [1, 12]: 0.715 ± 0.7 µg/mL | concentration at 24 h [1, 13]: 0.23 µg/mL | concentration at 24 h [1, 14]: 0.229 µg/mL | concentration at 24 h [1, 15]: 0.148 µg/mL | concentration at 24 h [1, 12]: 0.202 ± 0.047 µg/mL | serum HBsAg compared to controls (HBV genotype C): lower
